{"source": "patent US7691567B2", "about": "“Methods and compositions relating to fortilin, an anti-apoptotic molecule, and modulators of fortilin” (Board of Regents, the University of Texas System, priority 2000, dated 2010)", "key": {"[1]": {"system": "MCL1", "test": "Western blot of intracellular MCL1 concentration in U2OS cells overexpressing Fortilin", "assay_type": "cell-based", "conditions": "U2OS stable transfectants, compared with control or wild type transfectants"}, "[2]": {"target": "T1, Bak (Homo sapiens, UniProt Q16611)", "T1 sequence (Q16611 1-211)": "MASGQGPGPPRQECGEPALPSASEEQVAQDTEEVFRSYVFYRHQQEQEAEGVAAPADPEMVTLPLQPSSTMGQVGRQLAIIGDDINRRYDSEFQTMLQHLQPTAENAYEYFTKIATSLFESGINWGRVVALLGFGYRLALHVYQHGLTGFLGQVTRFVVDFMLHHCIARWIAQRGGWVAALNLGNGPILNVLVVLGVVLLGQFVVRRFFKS", "test": "In vitro pull-down assay of Fortilin-HA with Bak", "assay_type": "binding", "conditions": "in vitro translated proteins, anti-HA pull-down"}, "[3]": {"system": "HeLa cells", "test": "Cell death assay: etoposide-induced apoptosis in transfected HeLa cells (apoptotic index)", "assay_type": "cell-based", "procedure": "Cell death assay: The experiment was performed in duplicate and repeated at least three times. A total of […] HeLa cells were seeded in each well of a 4-well Lab-Teck™ chamber slides (Nalge Nunc International), and transfected with pFLAG containing Fortilin or other control cDNAs, using FuGENE6 (Roche). Twenty-four hours after the transfection, the cells were challenged by 5 μg/mL etoposide for 12 hours. Cells were stained for the FLAG-epitope using anti-FLAG antibody (M2, Sigma Co) and anti-mouse IgG conjugated to Rhodamine Red X (Jackson ImmunoResearch Laboratories). The nuclei were stained with DAPI (4,6-Diamidino-2-phenylindole, Sigma Co). Cells were then examined under a Zeiss AXIOSKOP fluorescent microscope (Carl Zeiss Ltd.), using appropriate filter sets. Cells that emitted red fluorescence were evaluated for their nuclear morphology. Condensed or fragmented nuclei were counted as apoptotic. An apoptotic index was then calculated as the number of red cells with apoptotic nuclear morphology divided by the number of total red cells counted and multiplied by 100.\nStatistical analysis: For the analysis of statistical significance of apoptotic indices among cells transfected with different plasmids, Dunnett's T tests were performed. In all cases, the confidence intervals were 0.95 with the alpha value of 0.05. For the statistical evaluation of the significant linear trend between the amount of plasmids used for the transfection and apoptotic indices, ANOVA (Analysis of Variance) regression analysis was employed. […] For the analysis of statistical significance of possible correlation between the degree of malignancy and the indices of Fortilin immunoreactivity, Dunnett's multiple range tests were performed."}, "[4]": {"system": "caspase 3-like activity", "test": "Assay of caspase 3-like activity in U2OS stable transfectants (Z-DEVD-AFC)", "assay_type": "cell-based", "procedure": "Assay of caspase 3-like activity. Approximately 2×10^6 U2OS stable transfectants, either expressing Fortilin (U2OS.F) or harboring empty expression vector (U2OS.E), both of which have been characterized above, were challenged either with dimethyl sulfoxide (DMSO) (vehicle) or with etoposide at a final concentration of 10 μg/mL for 48 hours. Caspase 3-like activity was then determined as previously described (Mannick et al., 1999). In brief, cytosolic proteins were extracted in hypotonic cell lysis buffer (25 mM HEPES, pH 7.5, 5 mM MgCl2, 5 mM EDTA, 5 mM dithiothreitol, 0.05% phenylmethylsulfonyl fluoride [PMSF]; all from Sigma) by three cycles of freezing and thawing. The protein concentration of samples was determined by using a BioRad Bradford protein assay kit (BioRad). Ten micrograms of cytosolic extracts were added to caspase assay buffer (312.5 mM HEPES, pH 7.5, 31.25% sucrose, 0.3125% CHAPS) with Z-DEVD-AFC as substrates (CalBiochem, San Diego, Calif.). Release of 7-amido-4-(trifluoromethyl)coumarin (AFC) was quantified, after 2 hours of incubation at 37° C. (or, in the case of time course experiment, every 10 minutes), using a Fluoroskan system (Thermo-Labsystems, Helsinki, Finland) set to an excitation value of 355 nm and emission value of 525 nm. The results were expressed as relative fluorescence unit (R.F.U.) per microgram of protein."}}, "note": "“Also recorded” adds a separate entry of the source."}
{"substance": "Fortilin: 172 amino acid anti-apoptotic polypeptide (SEQ ID NO:2), overexpressed from expression constructs or used as recombinant/in vitro translated protein", "values": [{"measurement": "expression levels of MCL1 (MCL1 Expression Index)", "setting": "[1]", "value": "similar"}, {"measurement": "co-immunoprecipitation of Bak with Fortilin in vitro", "setting": "[2]", "value": "not"}, {"measurement": "prevention of Etoposide-induced apoptosis (apoptotic index)", "setting": "[3]; HeLa cells overexpressing FLAG-tagged protein, 5 μg/mL etoposide 12 hours", "value": "prevented HeLa cells from undergoing Etoposide-induced apoptosis in a statistically significant fashion; also recorded: as strong an anti-apoptotic effect as that of Bcl-xL and MCL1"}, {"measurement": "apoptotic index versus amount of Fortilin expressed", "setting": "[3]; HeLa cells, various amounts of pFLAG-Fortilin, etoposide challenge", "value": "more prominent anti-apoptotic effects"}, {"measurement": "inhibition of caspase-3-like activity, kinetics", "setting": "[4]; U2OS cells, 10 μg/mL etoposide, signals every 10 minutes for 2 hours", "value": "significantly inhibited the caspase-3-like activity in U2OS cells at all time points"}, {"measurement": "inhibition of caspase-3-like activity upon etoposide challenge", "setting": "[4]; U2OS cells, etoposide 10 μg/mL 48 hours, vs empty vector", "value": "significantly inhibited the caspase-3-like activity in U2OS cells"}, {"measurement": "caspase-3-like activity", "setting": "[4]; U2OS stably expressing Fortilin (U2OS.F), absence of etoposide challenge (DMSO)", "value": "283±22.6", "unit": "R.F.U./μg protein"}, {"measurement": "caspase-3-like activity index", "setting": "[4]; U2OS stably expressing Fortilin (U2OS.F), etoposide 10 μg/mL 48 hours", "value": "713.9±62.6", "unit": "R.F.U./μg protein"}]}
